In article PMC9218685, “Legume Plant Peptides as Sources of Novel Antimicrobial Molecules Against Human Pathogens” (Frontiers in Molecular Biosciences, 2022):
In brackets after ≈: the same amount, converted by molar mass. Ends that are not written are not given here. Peptide text beside a SMILES is read from it.

Experiments:
Format in all cases: cell-based
[1] = test system: Acinetobacter baumannii (ATCC 17978); assay: microbe, parasite or virus in culture; details: for MBC Acinetobacter baumannii: ATCC 17978, 3 h; for Activity against A. baumannii: 3 h, peptides ≤25 µM
From the text: (§1) The following pathogenic bacterial strains were used: The Gram-positive Enterococcus faecalis (ATCC 29212), Staphylococcus aureus (HNCMO112011), Listeria monocytogenes (ATCC 19111) and the Gram-negative Pseudomonas aeruginosa (ATCC 27853), Escherichia coli (ATCC 8739), Salmonella enterica (ATCC 13076), Klebsiella pneumoniae (NCTC 13440), Acinetobacter baumannii (ATCC 17978) obtained from the ATCC (United States) and NCTC (National Collection of Type Cultures–England). For the antifungal experiment the Candida albicans W01 strain ([Ördögh et al., 2014]) was used. Antimicrobial activities of peptides against ∼10^7 log phase bacteria were tested in Potassium-Phosphate Buffer (PPB, pH 7.4) as described by [Jenei et al. (2020)] while anti-Candida assays were done according to [Szerencsés et al. (2021)]. The two-fold dilution series of peptides ranged from 25 μM to 0.125 μM, while that of the antibiotics ampicillin (Merck) and miconazole (Duchefa Biochemie) from […] to 0.1 μM. The lowest concentration of the antimicrobial agents, which completely eliminated viable bacteria or C. albicans were considered as the minimal bactericidal concentration (MBC) and minimal fungicidal concentration (MFC).
(§2) The minimal bactericidal concentrations (MBCs) were determined after 3 h of treatment of ∼10^7 log phase bacteria with 2-fold serial dilution of peptides from 25 µM to 0.8 µM. Only 25 of the 50 cationic M. truncatula peptides had activity at ≤25 µM (Supplementary Table S1). […] Three peptides were only active against two bacterial strains; NCR649 against L. monocytogenes and A. baumannii, NCR281 against L. monocytogenes and P. aeruginosa and NCR350 against A. baumannii and P. aeruginosa. […] None of the anionic NCR peptides affected the survival of the tested bacterial strains.

[2] = test system: E. coli, S. enteritidis, P. aeruginosa, L. monocytogenes, S. aureus, E. faecalis, K. pneumoniae and A. baumannii; assay: Antimicrobial activity assay, spectrum over the eight tested pathogenic bacteria; details: 3 h treatment of ~10^7 log phase bacteria, peptides 25 to 0.8 µM; active = MBC ≤25 µM
From the text: as §1
We investigated the antimicrobial activity of 78 NCR peptides from M. truncatula and 12 NCRs from other IRLC legumes as well as their shorter derivatives against E. coli, S. enteritidis, P. aeruginosa, L. monocytogenes, S. aureus, E. faecalis, K. pneumoniae and A. baumannii (Supplementary Table S1). In the selection of the M. truncatula peptides, we considered their symbiotic expression levels but also their physicochemical properties. The antimicrobial activity of NCRs has so far been attributed to cationic peptides, with the exception of one anionic peptide. To investigate whether other anionic NCRs are antimicrobial, in addition to the cationic peptides, neutral and anionic NCRs were also included covering a broad range of peptides with different net charges (NC: from 7.8 to −10.2) and isoelectric points (pI: from 10.69 to 2.95). 50 peptides had positive net charge and pI > 7.0, while 28 peptides had negative net charge and pI < 7.0 (Supplementary Table S1A). Of the other legumes, only cationic NCR peptides were studied (Supplementary Table S1B).
as §2

[3] = test system: Pseudomonas aeruginosa (ATCC 27853); details: for MBC Pseudomonas aeruginosa: ATCC 27853, 3 h
From the text: as §1, §2

Molecule | MBC Acinetobacter baumannii [1] [µM] | Activity against A. baumannii ([1]; ~10^7 log phase bacteria) | MBC Pseudomonas aeruginosa [3] [µM] | also measured
CC[C@H](C)[C@H](NC(=O)[C@H](CC(N)=O)NC(=O)[C@H](Cc1c[nH]cn1)NC(=O)[C@@H]1CCCN1C(=O)[C@@H]1CCCN1C(=O)[C@H](CCSC)NC(=O)[C@H](CCCNC(=N)N)NC(=O)[C@@H]1CCCN1C(=O)[C@H](CS)NC(=O)[C@H](CC(=O)O)NC(=O)[C@H](CCCCN)NC(=O)[C@H](CC(=O)O)NC(=O)[C@@H](NC(=O)[C@H](CC(C)C)NC(=O)[C@H](CS)NC(=O)[C@@H]1CCCN1C(=O)[C@H](CCCNC(=N)N)NC(=O)[C@H](CC(C)C)NC(=O)[C@@H](NC(=O)[C@H](CCSC)NC(=O)CNC(=O)[C@@H](N)Cc1ccccc1)[C@@H](C)O)[C@@H](C)O)C(=O)N[C@@H](CCCCN)C(=O)N[C@@H](CS)C(=O)N[C@@H](CCCNC(=N)N)C(=O)N[C@@H](CCCCN)C(=O)NCC(=O)N[C@@H](Cc1c[nH]cn1)C(=O)N[C@@H](CS)C(=O)N[C@H](C(=O)N1CCC[C@H]1C(=O)N[C@H](C(=O)NCC(=O)N[C@@H](CCCCN)C(=O)N1CCC[C@H]1C(=O)N[C@@H](Cc1ccccc1)C(=O)N[C@@H](CCCCN)C(=O)O)[C@@H](C)CC)C(C)C [NCR137] (H-FGMTLRPCLTDKDCPRMPPHNIKCRKGHCVPIGKPFK-OH; N-terminus assumed) | 25 (≈ 106 µg/mL) |  |  | 
CC[C@H](C)[C@H](NC(=O)[C@H](Cc1ccc(O)cc1)NC(=O)[C@H](CC(N)=O)NC(=O)[C@H](CCCNC(=N)N)NC(=O)[C@@H](NC(=O)[C@H](CCC(N)=O)NC(=O)[C@H](CCCNC(=N)N)NC(=O)[C@H](CS)NC(=O)[C@H](CC(=O)O)NC(=O)[C@H](CCCCN)NC(=O)[C@H](CC(N)=O)NC(=O)[C@@H](NC(=O)[C@@H](NC(=O)[C@H](CS)NC(=O)[C@H](CC(N)=O)NC(=O)[C@H](CCCNC(=N)N)NC(=O)[C@H](CO)NC(=O)[C@@H](NC(=O)[C@@H]1CCCN1C(=O)[C@H](CC(C)C)NC(=O)[C@@H](N)Cc1ccccc1)[C@@H](C)O)[C@@H](C)CC)[C@@H](C)O)C(C)C)C(=O)N[C@@H](C)C(=O)N[C@@H](CCCNC(=N)N)C(=O)N[C@@H](CS)C(=O)N[C@@H](CCCNC(=N)N)C(=O)N[C@@H](CCCCN)C(=O)NCC(=O)N[C@@H](CCC(N)=O)C(=O)N[C@@H](CS)C(=O)N[C@@H](CC(C)C)C(=O)N[C@@H](CCC(N)=O)C(=O)N[C@@H](CO)C(=O)N1CCC[C@H]1C(=O)N[C@H](C(=O)N[C@@H](CCCNC(=N)N)C(=O)O)C(C)C [NCR030] (H-FLPTSRNCITNKDCRQVRNYIARCRKGQCLQSPVR-OH; N-terminus assumed) | 3.125 (≈ 12.9 µg/mL) | only against A. baumannii |  | 
CC[C@H](C)[C@H](NC(=O)[C@H](CCSC)NC(=O)[C@H](CCCNC(=N)N)NC(=O)[C@H](CCCNC(=N)N)NC(=O)CNC(=O)[C@@H]1CCCN1C(=O)[C@H](CC(C)C)NC(=O)[C@H](CS)NC(=O)[C@H](Cc1ccc(O)cc1)NC(=O)[C@H](CCCCN)NC(=O)[C@@H](NC(=O)[C@@H]1CCCN1C(=O)[C@H](CO)NC(=O)[C@H](CS)NC(=O)[C@H](CC(=O)O)NC(=O)[C@H](CO)NC(=O)[C@@H](NC(=O)[C@H](CCCCN)NC(=O)[C@@H](NC(=O)[C@H](CS)NC(=O)[C@H](CCC(=O)O)NC(=O)[C@H](CC(=O)O)NC(=O)[C@@H](N)CO)C(C)C)C(C)C)[C@@H](C)O)C(=O)N[C@@H](CS)C(=O)N[C@@H](CO)C(=O)N[C@@H](CCCCN)C(=O)NCC(=O)N[C@@H](CCCCN)C(=O)N[C@@H](CS)C(=O)N[C@@H](CCCCN)C(=O)N[C@@H](CS)C(=O)N[C@@H](CC(C)C)C(=O)N[C@@H](CCCNC(=N)N)C(=O)N[C@@H](CC(N)=O)C(=O)N[C@@H](CCSC)C(=O)N[C@@H](Cc1ccccc1)C(=O)N[C@H](C(=O)N1CCC[C@H]1C(=O)N[C@H](C(=O)N1CCC[C@H]1C(=O)O)[C@@H](C)CC)[C@@H](C)CC [NCR135] (H-SDECVKVSDCSPTKYCLPGRRMICSKGKCKCLRNMFIPIP-OH; N-terminus assumed) |  |  |  | Antibacterial spectrum over the eight tested bacterial strains [2]: against three strains
CC1(C)S[C@@H]2[C@H](NC(=O)[C@H](N)c3ccccc3)C(=O)N2[C@H]1C(=O)O [Ampicillin, reference compound] |  |  |  | MBC ([1]; Acinetobacter baumannii, ATCC17978, ~10^7 log phase bacteria, Potassium-Phosphate Buffer pH 7.4, 3 h treatment, two-fold dilution series, lowest concentration completely eliminating viable bacteria, read-out: MBC, minimal bactericidal concentration against A. baumannii): 10200 µM (≈ 3580 µg/mL)
CC[C@H](C)[C@H](NC(=O)[C@H](Cc1ccc(O)cc1)NC(=O)[C@H](CC(N)=O)NC(=O)[C@H](CCCCN)NC(=O)[C@@H](NC(=O)[C@H](CO)NC(=O)[C@@H]1CCCN1C(=O)[C@H](CS)NC(=O)[C@H](CC(=O)O)NC(=O)[C@H](CCCCN)NC(=O)[C@H](CC(=O)O)NC(=O)[C@@H](NC(=O)[C@@H](NC(=O)[C@H](CS)NC(=O)[C@@H](NC(=O)[C@H](CCCNC(=N)N)NC(=O)[C@@H](NC(=O)[C@@H](NC(=O)[C@@H]1CCCN1C(=O)[C@H](CC(C)C)NC(=O)[C@H](Cc1ccc(O)cc1)NC(=O)[C@@H](N)[C@@H](C)O)[C@@H](C)O)[C@@H](C)O)[C@@H](C)CC)[C@@H](C)CC)[C@@H](C)O)C(C)C)C(=O)NCC(=O)N[C@@H](CCCNC(=N)N)C(=O)N[C@@H](CS)C(=O)N[C@@H](CCCNC(=N)N)C(=O)N[C@@H](CCCCN)C(=O)NCC(=O)N[C@@H](Cc1ccc(O)cc1)C(=O)N[C@@H](CS)C(=O)N[C@@H](CCC(N)=O)C(=O)N[C@@H](C)C(=O)N[C@@H](CO)C(=O)N[C@@H](CCCCN)C(=O)N[C@@H](CC(C)C)C(=O)N[C@@H](CCCNC(=N)N)C(=O)O [NCR042] (H-TYLPTTRICITDKDCPSVKNYIGRCRKGYCQASKLR-OH; N-terminus assumed) |  |  | 25 (≈ 104 µg/mL) | 
CC[C@H](C)[C@H](NC(=O)[C@H](CC(N)=O)NC(=O)[C@H](Cc1ccc(O)cc1)NC(=O)[C@H](CCC(N)=O)NC(=O)[C@H](CO)NC(=O)[C@@H](NC(=O)[C@H](CCCCN)NC(=O)[C@@H]1CCCN1C(=O)[C@H](CS)NC(=O)[C@H](CC(=O)O)NC(=O)[C@H](CCCCN)NC(=O)[C@H](CC(=O)O)NC(=O)[C@@H](NC(=O)[C@@H](NC(=O)[C@H](CS)NC(=O)[C@@H]1CCCN1C(=O)CNC(=O)[C@H](CO)NC(=O)[C@H](CC(N)=O)NC(=O)[C@@H](NC(=O)[C@H](Cc1ccc(O)cc1)NC(=O)[C@@H]1CCCN1C(=O)[C@@H](NC(=O)[C@H](CO)NC(=O)[C@H](CC(=O)O)NC(=O)[C@H](Cc1ccc(O)cc1)NC(=O)[C@@H](NC(=O)[C@@H](N)CO)C(C)C)[C@@H](C)CC)C(C)C)C(C)C)[C@@H](C)O)C(C)C)C(=O)N[C@@H](CCCNC(=N)N)C(=O)N[C@@H](CS)C(=O)N[C@@H](CCCNC(=N)N)C(=O)N[C@@H](CCCCN)C(=O)NCC(=O)N[C@@H](CCC(N)=O)C(=O)N[C@@H](CS)C(=O)N[C@@H](C)C(=O)N[C@@H](CCCNC(=N)N)C(=O)N[C@H](C(=O)N[C@@H](CCCNC(=N)N)C(=O)N[C@H](C(=O)O)C(C)C)[C@@H](C)CC [NCR361] (H-SVYDSIPYVNSGPCVTDKDCPKVSQYNIRCRKGQCARIRV-OH; N-terminus assumed) |  |  | 25 (≈ 113 µg/mL) | 
VYDSKYFQIASPCVNDKDCPQFKNNNVRCRRGFCVNSGGATQKCLGCPSLK-OH (cysteines drawn unpaired) [NCR350] | 12.5 | active | 25 | Activity against P. aeruginosa ([3]; 3 h, ~10^7 log phase bacteria, peptides ≤25 µM): active
CC[C@H](C)[C@H](NC(=O)[C@H](Cc1ccccc1)NC(=O)[C@@H](NC(=O)[C@H](CCCCN)NC(=O)[C@H](CC(=O)O)NC(=O)[C@@H]1CCCN1C(=O)[C@@H](N)Cc1ccccc1)[C@@H](C)CC)C(=O)NCC(=O)N[C@@H](CC(=O)O)C(=O)N[C@@H](CS)C(=O)N[C@@H](CCCCN)C(=O)N[C@H](C(=O)N[C@@H](CC(=O)O)C(=O)N[C@@H](CCCCN)C(=O)N[C@@H](CC(=O)O)C(=O)N[C@@H](CS)C(=O)N[C@@H](CCCCN)C(=O)N1CCC[C@H]1C(=O)N[C@@H](CCCCN)C(=O)N[C@@H](CCCNC(=N)N)C(=O)NCC(=O)N[C@H](C(=O)N[C@@H](CC(N)=O)C(=O)N[C@@H](Cc1ccccc1)C(=O)N[C@@H](CCCNC(=N)N)C(=O)N[C@@H](CS)C(=O)N[C@@H](CCCNC(=N)N)C(=O)N[C@@H](CCCCN)C(=O)NCC(=O)N[C@@H](CCCCN)C(=O)N[C@@H](CS)C(=O)N[C@@H](Cc1ccc(O)cc1)C(=O)N1CCC[C@H]1C(=O)N[C@@H](CCCNC(=N)N)C(=O)O)C(C)C)[C@@H](C)O [NCR032] (H-FPDKIFIGDCKTDKDCKPKRGVNFRCRKGKCYPR-OH; N-terminus assumed) | 3.125 (≈ 12.6 µg/mL) | only against A. baumannii |  | 
